Target: T1, Human HM74A (Homo sapiens, UniProt Q8TDS4)
T1 construct: expressed in transfected cells; P2 membrane fractions
Experiment: [35S]-GTPγS binding assay on HM74A membranes (10 μl and 50 μl formats)
Format: biochemical
Conditions: 10 μl and/or 50 μl assay, in which they were tested; +/−0.3 log unit; read-out: pEC50 in the [35S]-GTPγS binding assays (converted)
Protocol: For transient transfections, HEK293T cells (HEK293 cells stably expressing the SV40 large T-antigen) were maintained in DMEM containing 10% foetal calf serum and 2 mM glutamine. Cells were seeded in 90 mm culture dishes and grown to 60-80% confluence (18-24 h) prior to transfection. Human HM74A (GenBank™ accession number AY148884) was subcloned in to a mammalian expression vector (pcDNA3; Invitrogen) and transfected using Lipofectamine reagent. For transfection, 9 μg of DNA was mixed with 30 μl Lipofectamine in 0.6 ml of Opti-MEM (Life Technologies Inc.) and was incubated at room temperature for 30 min prior to the addition of 1.6 ml of Opti-MEM. Cells were exposed to the Lipofectamine/DNA mixture for 5 h and 6 ml of 20% (v/v) foetal calf serum in DMEM was then added. Cells were harvested 48 h after transfection. Pertussis toxin treatment was carried out by supplementation into media at 50 ngml^−1 for 16 h. All transient transfection studies involved co-transfection of receptor together with the Gi/o G protein, Go1α.
For generation of stable cell lines the above method was used to transfect CHO-K1 cells seeded in six well dishes grown to 30% confluence. These cells were maintained in DMEM F-12 HAM media containing 10% foetal calf serum and 2 mM glutamine. 48 h post-transfection the media was supplemented with 400 μg/ml Geneticin (G418, Gibco) for selection of antibiotic resistant cells. Clonal CHO-K1 cell lines stably expressing HM74A were confirmed by [^35S]-GTPγS binding measurements, following the addition of nicotinic acid.
P2 membrane preparation—Plasma membrane-containing P2 particulate fractions were prepared from cell pastes frozen at −80° C. after harvest. All procedures were carried out at 4° C. Cell pellets were resuspended in 1 ml of 10 mM Tris-HCl and 0.1 mM EDTA, pH 7.5 (buffer A) and by homogenisation for 20 s with a Ultra Turrax followed by passage (5 times) through a 25-gauge needle. Cell lysates were centrifuged at 1,000 g for 10 min in a microcentrifuge to pellet the nuclei and unbroken cells and P2 particulate fractions were recovered by microcentrifugation at 16,000 g for 30 min. P2 particulate fractions were resuspended in buffer A and stored at −80° C. until required.
[^35S]-GTPγS binding—assays were performed at room temperature in 384-well format based on methods described previously, (Wieland, T. and Jakobs, K. H. (1994) Methods Enzymol. 237, 3-13). Briefly, the dilution of standard or test compounds were prepared and added to a 384-well plate in a volume of 10 μl. Membranes (HM74A or HM74) were diluted in assay buffer (20 mM HEPES, 100 mM NaCl, 10 mM MgCl2, pH7.4) supplemented with saponin (60 μg/ml), Leadseeker WGA beads (Amersham; 250 μg/well) and 10 μM GDP, so that the 20 μl volume added to each well contains 5 μg of membranes. [^35S]-GTPγS (1170 Ci/mmol, Amersham) was diluted (1:1500) in assay buffer and 20 μl added to each well. Following the addition of the radioligand, the plates were sealed, pulse spun and incubated for 4 hours at room temperature. At the end of the incubation period the plates were read on a Leadseeker machine (VIEWLUX PLUS; Perkin-Elmer) to determine the levels of specific binding.
These assays were refined by reducing the final assay volume to 10 μl. For this 10 μl assay a revised protocol was used. This involved the use of only 100 nl of standard or test compound per well of a 384-well plate and 1.5 μg membrane and 100 μg Leadseeker WGA beads. For the low volume protocol, membrane, beads and [^35S]-GTPγS were mixed together and then 10 μl of this mix were dispensed to each well. Incubation and plate read were identical for the 10 μl and 50 μl assays.
All exemplified compounds were tested in one or both of the [^35S]-GTPγS binding assays described above (i.e. the 10 μl and 50 μl assays).
Data was analysed by curve fitting as carried out using a Four Parameter Logistical equation using the XC50 software package (max 2 points deleted from any one curve). […]

T1 sequence (Q8TDS4 whole entry): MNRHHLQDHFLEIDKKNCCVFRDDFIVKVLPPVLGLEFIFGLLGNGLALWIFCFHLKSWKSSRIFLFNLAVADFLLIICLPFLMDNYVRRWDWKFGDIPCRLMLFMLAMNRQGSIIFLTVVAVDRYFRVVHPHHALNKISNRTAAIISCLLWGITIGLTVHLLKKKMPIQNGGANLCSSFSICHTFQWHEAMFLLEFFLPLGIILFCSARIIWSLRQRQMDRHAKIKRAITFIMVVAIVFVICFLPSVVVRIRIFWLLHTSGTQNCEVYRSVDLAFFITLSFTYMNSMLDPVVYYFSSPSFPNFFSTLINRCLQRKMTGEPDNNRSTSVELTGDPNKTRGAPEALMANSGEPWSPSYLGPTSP

EC50	Structure (SMILES)
> 50.1 µM	CN(C)CCn1c(=O)n(CCCc2nc(Cc3ccc(F)cc3F)no2)c(=O)c2[nH]c(Cl)nc21 [8-chloro-1-(3-{3-[(2,4-difluorophenyl)methyl]-1,2,4-oxadiazol-5-yl}propyl)-3-[2-(dimethylamino)ethyl]-3,7-dihydro-1H-purine-2,6-dione]
> 50.1 µM	CN(C)C(C)(C)Cn1c(=O)n(CCCc2nc(Cc3ccc(F)cc3F)no2)c(=O)c2[nH]c(Cl)nc21 [8-chloro-1-(3-{3-[(2,4-difluorophenyl)methyl]-1,2,4-oxadiazol-5-yl}propyl)-3-[2-(dimethylamino)-2-methylpropyl]-3,7-dihydro-1H-purine-2,6-dione]
> 50.1 µM	O=c1c2[nH]c(Cl)nc2n(CCN2CCCC2)c(=O)n1CCCc1nc(Cc2ccc(F)cc2F)no1 [8-chloro-1-(3-{3-[(2,4-difluorophenyl)methyl]-1,2,4-oxadiazol-5-yl}propyl)-3-[2-(1-pyrrolidinyl)ethyl]-3,7-dihydro-1H-purine-2,6-dione]
> 50.1 µM	O=c1c2[nH]c(Cl)nc2n(CCN2CCCCCC2)c(=O)n1CCCc1nc(Cc2ccc(F)cc2F)no1 [8-chloro-1-(3-{3-[(2,4-difluorophenyl)methyl]-1,2,4-oxadiazol-5-yl}propyl)-3-[2-(hexahydro-1H-azepin-1-yl)ethyl]-3,7-dihydro-1H-purine-2,6-dione]
> 50.1 µM	CN(C)CCCn1c(=O)n(CCCc2nc(Cc3ccc(F)cc3F)no2)c(=O)c2[nH]c(Cl)nc21 [8-chloro-1-(3-{3-[(2,4-difluorophenyl)methyl]-1,2,4-oxadiazol-5-yl}propyl)-3-[3-(dimethylamino)propyl]-3,7-dihydro-1H-purine-2,6-dione]
> 50.1 µM	CN1CCN(CCCn2c(=O)n(CCCc3nc(Cc4ccc(F)cc4F)no3)c(=O)c3[nH]c(Cl)nc32)CC1 [8-chloro-1-(3-{3-[(2,4-difluorophenyl)methyl]-1,2,4-oxadiazol-5-yl}propyl)-3-[3-(4-methyl-1-piperazinyl)propyl]-3,7-dihydro-1H-purine-2,6-dione]
> 50.1 µM	O=c1c2[nH]c(Cl)nc2n(CCN2CCCCC2)c(=O)n1CCCc1nc(Cc2ccc(F)cc2F)no1 [8-chloro-1-(3-{3-[(2,4-difluorophenyl)methyl]-1,2,4-oxadiazol-5-yl}propyl)-3-[2-(1-piperidinyl)ethyl]-3,7-dihydro-1H-purine-2,6-dione]
